Like-named read-outs stand apart in the source and are kept apart here.

The test system of series [1] is normal human epidermal keratinocytes (NHEK). As to the kind of experiment: MTT reduction assay, cytotoxicity in NHEK. It is filed as cell-based. As for the experimental part: Culture conditions: 37 °C, 5 % CO2. Culture medium: Keratinocyte-SFM (serum-free medium) containing human recombinant epidermal growth factor (EGF 1-53) 0.25 ng/mL and bovine pituitary extract 25 µg/mL (Gibco; Cat. No. 17005-075), supplemented with gentamycin 25 µg/mL. Assay medium: Keratinocyte-SFM (Gibco; Cat. No. 10744-019), supplemented with gentamycin 25 µg/mL.
NHEK were seeded in 24-well plates (30.000 cells / well) and cultured in culture medium for 24 h and then in assay medium for another 24 h. Medium was then removed and replaced by assay medium containing the respective test compound or reference in defined concentrations.
Cytotoxicity was determined using the 3-(4,5-dimethylthiazol-2-yl)-2,5-diphenyltetrazoliumbromid (MTT) reduction assay (sse T. Mosmann (1983) J. Immunol. Methods. 65, pp. 55-63).

For the next series, the target named is T1, human sirtuin-1 (Sirt1) (Homo sapiens, UniProt Q96EB6).
T1 construct: purchased BioMol, Hamburg, Germany
T1 sequence (Q96EB6 1-747): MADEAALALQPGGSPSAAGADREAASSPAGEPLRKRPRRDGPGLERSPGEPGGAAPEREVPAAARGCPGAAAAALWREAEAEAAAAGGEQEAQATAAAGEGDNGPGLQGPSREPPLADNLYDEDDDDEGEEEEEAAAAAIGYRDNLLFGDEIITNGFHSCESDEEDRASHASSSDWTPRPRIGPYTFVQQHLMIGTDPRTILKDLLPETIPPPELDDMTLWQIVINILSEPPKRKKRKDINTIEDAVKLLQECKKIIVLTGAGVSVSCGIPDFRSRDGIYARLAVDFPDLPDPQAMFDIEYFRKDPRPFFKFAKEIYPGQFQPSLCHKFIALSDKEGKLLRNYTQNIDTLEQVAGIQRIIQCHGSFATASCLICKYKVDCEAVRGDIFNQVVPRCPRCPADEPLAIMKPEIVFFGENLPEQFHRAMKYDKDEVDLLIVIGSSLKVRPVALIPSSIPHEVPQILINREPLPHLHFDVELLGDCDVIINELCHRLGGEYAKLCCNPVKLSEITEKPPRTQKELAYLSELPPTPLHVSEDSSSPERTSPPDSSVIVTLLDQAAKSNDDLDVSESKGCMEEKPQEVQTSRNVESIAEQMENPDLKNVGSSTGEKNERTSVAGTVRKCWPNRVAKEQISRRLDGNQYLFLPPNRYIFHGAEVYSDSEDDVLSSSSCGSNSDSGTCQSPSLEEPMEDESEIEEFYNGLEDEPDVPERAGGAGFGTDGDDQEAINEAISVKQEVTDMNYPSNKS
Briefly: SIRT1 Fluorimetric Drug Discovery Kit, Sirt1 activation. It is filed as biochemical. The procedure:
Compounds were tested for Sirt1 activation using the SIRT1 Fluorimetric Drug Discovery Kit (BioMol, Hamburg, Germany), Testing was carried out in duplicate following the manufacturer's instructions. Assay medium: 50mM Tris-HCl pH 8.0, 137 mM NaCl, 2.7 mM KCI, 1 mM MgCl2, 1 mg/ml bovine serum albumin (BSA). Stock solutions of the test compounds (10 mM in DMSO) were used, yielding a final concentration of 10 µM in the assay plate. Readout was obtained by measuring the fluorescence in a microtiter plate reader (excitation: 380 nm; detection: 440 nm).
The agonistic effect on Sirt1 was determined at different concentrations. For this purpose, the test compound stock solutions were diluted to yield concentrations of 0.3, 1, 3, 10 and 30 µM, respectively, in the assay, which was performed as described above. The compound of structure (I-1) was selected for this experiment.
The selectivity of the agonistic effect of the compound of formula (I-1) on different sirtuin isoforms was investigated. For this purpose, in vitro testing was performed as described in Example 1 using the respective SIRT1 Fluorimetric Drug Discovery Kit, SIRT2 Fluorimetric Drug Discovery Kit, and SIRT3 Fluorimetric Drug Discovery Kit (each from BioMol, Hamburg, Germany). […] The dose-response effect is slightly lesser on Sirt3. Table 3: Activity on Sirt1

For the compound `CCOC(=O)c1c(O)cccc1/C=C/c1ccc(OCC)cc1` [(I-1)], the “cytotoxicity against NHEK” value in series [1] is “no cytotoxicity”. Besides, the “Fold increase in sirt1 activity versus control” value on human sirtuin-1 (Sirt1) (Example 1(a), 10 µM, trans-resveratrol as control (1.0)) worked out at 23.9. For the same compound, the remaining activity at 0.3 µM on human sirtuin-1 (Sirt1) (Example 1(b), Table 2, 0.3 µM, read-out: Activity [% control]) was 147%; on human sirtuin-1 (Sirt1) (Example 2, Table 3, 0.3 µM, read-out: Activity [% control]), 111%. The remaining activity at 1 µM at human sirtuin-1 (Sirt1) (Example 1(b), Table 2, 1.0 µM, read-out: Activity [% control]) came to 233%; at human sirtuin-1 (Sirt1) (Example 2, Table 3, 1.0 µM, read-out: Activity [% control]) it was 121%. The remaining activity at 3 µM on human sirtuin-1 (Sirt1) (Example 1(b), Table 2, 3.0 µM, read-out: Activity [% control]) is 434%; on human sirtuin-1 (Sirt1) (Example 2, Table 3, 3.0 µM, read-out: Activity [% control]) it was 168%. For the same compound, the remaining activity at 10 µM was determined as 626% at human sirtuin-1 (Sirt1) (Example 1(b), Table 2, 10.0 µM, read-out: Activity [% control]) and 256% on human sirtuin-1 (Sirt1) (Example 2, Table 3, 10.0 µM, read-out: Activity [% control]). For the same compound, the EC300 at human sirtuin-1 (Sirt1) (Example 1(b), concentration that gave 3-times the basal response of the enzyme) amounted to 2.0 µM; at human sirtuin-1 (Sirt1) (Example 2, Table 6, Sirt1) it was 12.9 µM. In addition, the remaining activity at 30 µM at human sirtuin-1 (Sirt1) (Example 2, Table 3, 30.0 µM, read-out: Activity [% control]) was 515%.

Source of the values: patent EP2801357A1, “Carboxylated stilbenes for activating AMPK and sirtuins” (IMD Natural Solutions GmbH, priority 2013, dated 2014).
